In ChEMBL document CHEMBL5375979, “Chemical, Biochemical, Cellular, and Physiological Characterization of Leucettinib-21, a Down Syndrome and Alzheimer's Disease Drug Candidate” (J Med Chem, 2023):

Assays:
[1] = target: Glycogen synthase kinase-3 (Homo sapiens, UniProt P49840+P49841); assay type: protein assay
[2] = target: Dual specificity protein kinase CLK1 (Homo sapiens, UniProt P49759)
[3] = target: Dual specificity protein kinase CLK2 (Homo sapiens, UniProt P49760)
[4] = target: T1, Dual specificity tyrosine-phosphorylation-regulated kinase 4 (Homo sapiens, UniProt Q9NR20)
T1 sequence (Q9NR20 whole entry): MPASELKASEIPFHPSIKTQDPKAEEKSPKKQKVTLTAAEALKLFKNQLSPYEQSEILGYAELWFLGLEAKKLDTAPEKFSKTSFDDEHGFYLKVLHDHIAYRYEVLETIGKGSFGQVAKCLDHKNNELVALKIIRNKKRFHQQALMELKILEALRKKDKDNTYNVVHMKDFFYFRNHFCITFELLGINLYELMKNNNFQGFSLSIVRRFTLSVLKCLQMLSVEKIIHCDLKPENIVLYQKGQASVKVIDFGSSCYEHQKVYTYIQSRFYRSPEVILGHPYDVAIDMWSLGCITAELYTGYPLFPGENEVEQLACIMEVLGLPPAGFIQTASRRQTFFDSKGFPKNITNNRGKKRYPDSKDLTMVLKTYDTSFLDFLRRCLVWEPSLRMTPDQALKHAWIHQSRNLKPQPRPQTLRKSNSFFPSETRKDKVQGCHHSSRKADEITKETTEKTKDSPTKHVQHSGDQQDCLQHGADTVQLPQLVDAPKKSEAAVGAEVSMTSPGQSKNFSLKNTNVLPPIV

[5] = target: Dual specificity protein kinase CLK4 (Homo sapiens, UniProt Q9HAZ1)
[6] = target: T2, Dual specificity tyrosine-phosphorylation-regulated kinase 3 (Homo sapiens, UniProt O43781)
T2 sequence (O43781 whole entry): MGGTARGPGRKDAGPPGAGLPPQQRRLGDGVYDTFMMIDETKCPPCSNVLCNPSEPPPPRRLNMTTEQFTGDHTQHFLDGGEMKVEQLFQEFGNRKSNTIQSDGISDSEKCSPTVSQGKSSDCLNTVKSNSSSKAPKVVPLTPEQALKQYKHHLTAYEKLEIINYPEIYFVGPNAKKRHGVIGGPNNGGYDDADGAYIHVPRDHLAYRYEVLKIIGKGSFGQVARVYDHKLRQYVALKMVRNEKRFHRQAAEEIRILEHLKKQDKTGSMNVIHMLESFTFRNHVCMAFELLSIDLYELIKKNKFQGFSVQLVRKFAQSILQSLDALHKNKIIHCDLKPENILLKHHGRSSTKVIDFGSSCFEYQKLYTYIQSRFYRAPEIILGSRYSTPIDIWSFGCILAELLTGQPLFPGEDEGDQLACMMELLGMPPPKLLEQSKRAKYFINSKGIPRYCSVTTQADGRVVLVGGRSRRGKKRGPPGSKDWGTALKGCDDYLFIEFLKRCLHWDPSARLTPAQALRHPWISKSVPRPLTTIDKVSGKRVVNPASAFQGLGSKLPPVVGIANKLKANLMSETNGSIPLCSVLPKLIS

[7] = target: Cyclin-dependent kinase 5 (Homo sapiens, UniProt Q00535)
[8] = target: Dual specificity protein kinase CLK3 (Homo sapiens, UniProt P49761)
Casein kinase I = assay type: protein assay, Homo sapiens
[9] = target: Dual specificity tyrosine-phosphorylation-regulated kinase 1B (Homo sapiens, UniProt Q9Y463)
[10] = target: T3, Dual specificity tyrosine-phosphorylation-regulated kinase 2 (Homo sapiens, UniProt Q92630)
T3 sequence (Q92630 whole entry): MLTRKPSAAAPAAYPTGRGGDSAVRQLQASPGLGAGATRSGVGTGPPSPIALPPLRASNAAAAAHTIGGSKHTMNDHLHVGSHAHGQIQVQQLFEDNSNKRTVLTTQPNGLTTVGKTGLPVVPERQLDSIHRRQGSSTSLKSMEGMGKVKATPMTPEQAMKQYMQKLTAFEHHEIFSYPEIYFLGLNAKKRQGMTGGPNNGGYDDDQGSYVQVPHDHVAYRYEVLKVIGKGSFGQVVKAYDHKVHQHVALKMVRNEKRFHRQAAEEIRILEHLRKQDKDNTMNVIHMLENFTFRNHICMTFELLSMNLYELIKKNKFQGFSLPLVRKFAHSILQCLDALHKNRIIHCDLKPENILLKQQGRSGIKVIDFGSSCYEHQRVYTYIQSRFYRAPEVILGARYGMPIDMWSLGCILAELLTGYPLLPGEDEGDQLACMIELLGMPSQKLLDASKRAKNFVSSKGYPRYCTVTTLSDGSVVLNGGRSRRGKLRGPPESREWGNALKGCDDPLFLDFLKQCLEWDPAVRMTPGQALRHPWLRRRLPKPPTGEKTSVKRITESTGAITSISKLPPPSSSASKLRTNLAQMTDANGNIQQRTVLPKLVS

[11] = target: Dual specificity tyrosine-phosphorylation-regulated kinase 1A (Homo sapiens, UniProt Q13627)

Cyclin-dependent kinase 5, sequence (Q00535 whole entry): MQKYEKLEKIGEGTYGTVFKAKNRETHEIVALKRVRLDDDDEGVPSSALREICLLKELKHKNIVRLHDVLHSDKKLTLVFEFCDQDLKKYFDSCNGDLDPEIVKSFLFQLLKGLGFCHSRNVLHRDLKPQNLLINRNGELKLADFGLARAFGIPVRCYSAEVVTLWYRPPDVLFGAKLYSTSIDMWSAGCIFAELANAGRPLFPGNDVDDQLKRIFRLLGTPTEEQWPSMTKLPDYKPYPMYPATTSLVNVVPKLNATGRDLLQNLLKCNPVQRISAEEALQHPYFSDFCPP
Dual specificity protein kinase CLK3, sequence (P49761 whole entry): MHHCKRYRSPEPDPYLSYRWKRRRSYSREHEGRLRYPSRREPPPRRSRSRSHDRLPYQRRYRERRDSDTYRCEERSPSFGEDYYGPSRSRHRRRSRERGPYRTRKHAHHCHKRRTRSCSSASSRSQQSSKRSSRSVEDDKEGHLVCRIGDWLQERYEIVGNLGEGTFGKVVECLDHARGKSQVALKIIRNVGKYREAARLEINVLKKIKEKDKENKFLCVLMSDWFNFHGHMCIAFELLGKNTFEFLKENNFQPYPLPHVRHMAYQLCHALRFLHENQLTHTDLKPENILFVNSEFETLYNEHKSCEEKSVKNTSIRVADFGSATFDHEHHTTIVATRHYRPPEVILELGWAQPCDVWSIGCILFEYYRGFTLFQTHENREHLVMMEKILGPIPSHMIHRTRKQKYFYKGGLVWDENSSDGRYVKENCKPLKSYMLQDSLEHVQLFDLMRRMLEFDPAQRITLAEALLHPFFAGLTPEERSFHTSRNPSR
Dual specificity protein kinase CLK2, sequence (P49760 whole entry): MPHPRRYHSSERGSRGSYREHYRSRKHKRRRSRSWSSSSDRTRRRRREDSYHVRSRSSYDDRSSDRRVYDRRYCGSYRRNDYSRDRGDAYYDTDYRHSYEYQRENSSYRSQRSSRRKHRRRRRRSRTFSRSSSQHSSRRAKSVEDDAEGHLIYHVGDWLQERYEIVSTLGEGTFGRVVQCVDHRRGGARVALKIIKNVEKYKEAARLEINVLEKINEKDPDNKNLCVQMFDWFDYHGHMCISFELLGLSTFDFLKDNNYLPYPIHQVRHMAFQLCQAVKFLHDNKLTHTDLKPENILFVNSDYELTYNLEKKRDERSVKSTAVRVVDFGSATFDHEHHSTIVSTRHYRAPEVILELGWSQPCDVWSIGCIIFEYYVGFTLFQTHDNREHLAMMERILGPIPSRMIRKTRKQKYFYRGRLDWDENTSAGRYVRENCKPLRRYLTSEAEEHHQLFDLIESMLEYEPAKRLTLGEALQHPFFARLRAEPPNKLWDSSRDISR
Dual specificity protein kinase CLK4, sequence (Q9HAZ1 whole entry): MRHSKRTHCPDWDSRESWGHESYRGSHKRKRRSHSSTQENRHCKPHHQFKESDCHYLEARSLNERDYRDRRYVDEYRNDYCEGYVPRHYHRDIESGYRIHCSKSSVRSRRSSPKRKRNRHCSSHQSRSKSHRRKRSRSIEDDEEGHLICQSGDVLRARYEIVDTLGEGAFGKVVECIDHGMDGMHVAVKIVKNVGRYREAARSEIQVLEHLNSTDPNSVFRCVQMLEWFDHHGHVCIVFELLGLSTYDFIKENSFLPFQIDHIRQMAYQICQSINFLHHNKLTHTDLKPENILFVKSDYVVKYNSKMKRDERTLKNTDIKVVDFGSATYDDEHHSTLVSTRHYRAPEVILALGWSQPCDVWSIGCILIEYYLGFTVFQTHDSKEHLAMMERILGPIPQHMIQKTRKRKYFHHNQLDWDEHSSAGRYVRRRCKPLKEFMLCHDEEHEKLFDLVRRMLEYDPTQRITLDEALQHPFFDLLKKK
Dual specificity protein kinase CLK1, sequence (P49759 whole entry): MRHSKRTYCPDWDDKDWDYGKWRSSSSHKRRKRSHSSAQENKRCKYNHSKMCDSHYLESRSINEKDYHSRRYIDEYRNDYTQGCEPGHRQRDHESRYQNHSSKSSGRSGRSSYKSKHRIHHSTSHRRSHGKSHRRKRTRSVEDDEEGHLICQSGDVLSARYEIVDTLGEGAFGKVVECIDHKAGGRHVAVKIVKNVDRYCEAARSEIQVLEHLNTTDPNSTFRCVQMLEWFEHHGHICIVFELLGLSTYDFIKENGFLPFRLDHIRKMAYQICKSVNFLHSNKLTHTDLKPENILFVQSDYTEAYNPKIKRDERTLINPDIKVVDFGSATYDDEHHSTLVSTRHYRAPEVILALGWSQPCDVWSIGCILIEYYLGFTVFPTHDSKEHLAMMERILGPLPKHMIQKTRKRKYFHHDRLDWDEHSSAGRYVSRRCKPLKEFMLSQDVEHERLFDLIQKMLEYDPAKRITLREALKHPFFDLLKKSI
Dual specificity tyrosine-phosphorylation-regulated kinase 1B, sequence (Q9Y463 whole entry): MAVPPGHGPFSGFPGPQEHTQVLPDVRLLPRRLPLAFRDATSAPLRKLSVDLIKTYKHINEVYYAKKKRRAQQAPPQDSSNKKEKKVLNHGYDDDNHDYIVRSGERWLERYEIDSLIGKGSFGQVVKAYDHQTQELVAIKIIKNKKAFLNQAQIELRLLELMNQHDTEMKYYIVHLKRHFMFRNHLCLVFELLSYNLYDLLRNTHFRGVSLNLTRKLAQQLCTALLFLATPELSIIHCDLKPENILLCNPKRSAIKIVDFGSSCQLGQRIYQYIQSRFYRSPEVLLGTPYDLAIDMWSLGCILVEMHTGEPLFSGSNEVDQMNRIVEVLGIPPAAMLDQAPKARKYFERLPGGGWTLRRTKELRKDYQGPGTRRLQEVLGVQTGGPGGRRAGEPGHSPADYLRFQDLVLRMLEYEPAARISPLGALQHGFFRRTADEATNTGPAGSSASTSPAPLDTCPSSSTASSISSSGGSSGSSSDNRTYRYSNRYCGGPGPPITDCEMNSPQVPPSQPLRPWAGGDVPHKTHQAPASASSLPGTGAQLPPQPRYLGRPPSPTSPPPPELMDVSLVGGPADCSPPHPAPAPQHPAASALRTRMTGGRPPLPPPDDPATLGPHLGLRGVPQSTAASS

IC50 [1] [µM]	IC50 [2] [µM]	IC50 [3] [µM]	IC50 [4] [µM]	IC50 [5] [µM]	IC50 [6] [µM]	IC50 [7] [µM]	IC50 [8] [µM]	IC50 (Casein kinase I) [µM]	IC50 [9] [µM]	IC50 [10] [µM]	IC50 [11] [µM]	SMILES
> 10	> 10	> 10	> 10	6.49	> 10	> 10	> 10	> 10				COC[C@@H](CC(C)C)NC1=N/C(=C\c2cc3scnc3cn2)C(=O)N1
> 10	2.45	6.47	> 10	1.01	> 10	> 10	5.32	> 10	> 10	0.774	> 10	COC[C@@H](CC(C)C)NC1=N/C(=C\c2ccc3ncsc3c2)C(=O)N1C1CCCC1
8.988		0.643	2.86	0.24	0.842	> 10	1.26	> 10			0.506	COC[C@@H](CC(C)C)NC1=N/C(=C\c2ccc3ncsc3c2)C(=O)N1C1CC1
